According to the NIST ThermoML archive (doi:10.1021/je100765j):

Test: xn = mol fraction of the nth substance listed
Settings: 101 kPa, Liquid; for speed of sound: Sing-around technique in a fixed-path interferometer

CC(C)(C)Cl [2-chloro-2-methylpropane] + CC(C)OC(C)C
Settings | mass density [kg/m3] | speed of sound [m/s]
283.15 K, x1 = 0.049 | 738.51 | 1064.9
283.15 K, x1 = 0.0996 | 743.477 | 1064.1
283.15 K, x1 = 0.1991 | 753.625 | 1062.7
283.15 K, x1 = 0.3212 | 766.738 | 1060.7
283.15 K, x1 = 0.4189 | 777.752 | 1059.1
283.15 K, x1 = 0.5148 | 789.053 | 1057.4
283.15 K, x1 = 0.6213 | 802.211 | 1055.4
283.15 K, x1 = 0.7152 | 814.386 | 1053.5
283.15 K, x1 = 0.8138 | 827.84 | 1051.4
283.15 K, x1 = 0.9079 | 841.342 | 1049.2
283.15 K, x1 = 0.9552 | 848.393 | 1048.1
288.15 K, x1 = 0.049 | 733.338 | 1042.5
288.15 K, x1 = 0.0996 | 738.271 | 1041.8
288.15 K, x1 = 0.1991 | 748.35 | 1040.4
288.15 K, x1 = 0.3212 | 761.373 | 1038.5
288.15 K, x1 = 0.4189 | 772.305 | 1037
288.15 K, x1 = 0.5148 | 783.527 | 1035.4
288.15 K, x1 = 0.6213 | 796.59 | 1033.5
288.15 K, x1 = 0.7152 | 808.683 | 1031.8
288.15 K, x1 = 0.8138 | 822.038 | 1029.8
288.15 K, x1 = 0.9079 | 835.444 | 1027.7
288.15 K, x1 = 0.9552 | 842.442 | 1026.6
293.15 K, x1 = 0.049 | 728.121 | 1020
293.15 K, x1 = 0.0996 | 733.024 | 1019.4
293.15 K, x1 = 0.1991 | 743.024 | 1018
293.15 K, x1 = 0.3212 | 755.959 | 1016.3
293.15 K, x1 = 0.4189 | 766.815 | 1014.9
293.15 K, x1 = 0.5148 | 777.959 | 1013.4
293.15 K, x1 = 0.6213 | 790.929 | 1011.6
293.15 K, x1 = 0.7152 | 802.935 | 1010
293.15 K, x1 = 0.8138 | 816.189 | 1008.1
293.15 K, x1 = 0.9079 | 829.491 | 1006.1
293.15 K, x1 = 0.9552 | 836.437 | 1005.1
298.15 K, x1 = 0.049 | 722.867 | 997.71
298.15 K, x1 = 0.0996 | 727.738 | 997.09
298.15 K, x1 = 0.1991 | 737.666 | 995.89
298.15 K, x1 = 0.3212 | 750.506 | 994.32
298.15 K, x1 = 0.4189 | 761.286 | 993.03
298.15 K, x1 = 0.5148 | 772.351 | 991.68
298.15 K, x1 = 0.6213 | 785.228 | 990.11
298.15 K, x1 = 0.7152 | 797.145 | 988.62
298.15 K, x1 = 0.8138 | 810.301 | 986.91
298.15 K, x1 = 0.9079 | 823.502 | 985.13
298.15 K, x1 = 0.9552 | 830.397 | 984.18
303.15 K, x1 = 0.049 | 717.578 | 975.46
303.15 K, x1 = 0.0996 | 722.411 | 974.84
303.15 K, x1 = 0.1991 | 732.264 | 973.65
303.15 K, x1 = 0.3212 | 745.015 | 972.13
303.15 K, x1 = 0.4189 | 755.716 | 970.88
303.15 K, x1 = 0.5148 | 766.702 | 969.59
303.15 K, x1 = 0.6213 | 779.48 | 968.1
303.15 K, x1 = 0.7152 | 791.311 | 966.67
303.15 K, x1 = 0.8138 | 804.371 | 965.04
303.15 K, x1 = 0.9079 | 817.469 | 963.34
303.15 K, x1 = 0.9552 | 824.312 | 962.38
308.15 K, x1 = 0.049 | 712.24 | 953.42
308.15 K, x1 = 0.0996 | 717.041 | 952.84
308.15 K, x1 = 0.1991 | 726.821 | 951.71
308.15 K, x1 = 0.3212 | 739.479 | 950.28
308.15 K, x1 = 0.4189 | 750.102 | 949.13
308.15 K, x1 = 0.5148 | 761.005 | 947.93
308.15 K, x1 = 0.6213 | 773.688 | 946.56
308.15 K, x1 = 0.7152 | 785.433 | 945.25
308.15 K, x1 = 0.8138 | 798.394 | 943.74
308.15 K, x1 = 0.9079 | 811.393 | 942.17
308.15 K, x1 = 0.9552 | 818.179 | 941.27
313.15 K, x1 = 0.049 | 706.86 | 931.51
313.15 K, x1 = 0.0996 | 711.627 | 930.96
313.15 K, x1 = 0.1991 | 721.331 | 929.87
313.15 K, x1 = 0.3212 | 733.893 | 928.52
313.15 K, x1 = 0.4189 | 744.44 | 927.44
313.15 K, x1 = 0.5148 | 755.257 | 926.35
313.15 K, x1 = 0.6213 | 767.848 | 925.1
313.15 K, x1 = 0.7152 | 779.502 | 923.88
313.15 K, x1 = 0.8138 | 792.364 | 922.47
313.15 K, x1 = 0.9079 | 805.264 | 921
313.15 K, x1 = 0.9552 | 811.999 | 920.15

CCCCCl [1-chlorobutane] + CC(C)OC(C)C
Settings | mass density [kg/m3] | speed of sound [m/s]
283.15 K, x1 = 0.0466 | 740.095 | 1070.9
283.15 K, x1 = 0.0991 | 747.139 | 1076.6
283.15 K, x1 = 0.1918 | 759.833 | 1087
283.15 K, x1 = 0.32 | 778.726 | 1101.5
283.15 K, x1 = 0.4199 | 793.339 | 1112.3
283.15 K, x1 = 0.516 | 808.586 | 1123.3
283.15 K, x1 = 0.623 | 826.434 | 1135.5
283.15 K, x1 = 0.7154 | 842.63 | 1146.3
283.15 K, x1 = 0.8157 | 861.003 | 1158.2
283.15 K, x1 = 0.9098 | 879.099 | 1169.3
283.15 K, x1 = 0.9559 | 888.28 | 1174.9
288.15 K, x1 = 0.0466 | 734.99 | 1048.6
288.15 K, x1 = 0.0991 | 741.966 | 1054.3
288.15 K, x1 = 0.1918 | 754.629 | 1064.7
288.15 K, x1 = 0.32 | 773.471 | 1079.4
288.15 K, x1 = 0.4199 | 788.055 | 1090.3
288.15 K, x1 = 0.516 | 803.274 | 1101.5
288.15 K, x1 = 0.623 | 821.073 | 1114
288.15 K, x1 = 0.7154 | 837.246 | 1125
288.15 K, x1 = 0.8157 | 855.588 | 1137
288.15 K, x1 = 0.9098 | 873.635 | 1148.4
288.15 K, x1 = 0.9559 | 882.81 | 1154.2
293.15 K, x1 = 0.0466 | 729.792 | 1026.2
293.15 K, x1 = 0.0991 | 736.75 | 1032
293.15 K, x1 = 0.1918 | 749.383 | 1042.5
293.15 K, x1 = 0.32 | 768.192 | 1057.3
293.15 K, x1 = 0.4199 | 782.731 | 1068.4
293.15 K, x1 = 0.516 | 797.924 | 1079.7
293.15 K, x1 = 0.623 | 815.68 | 1092.4
293.15 K, x1 = 0.7154 | 831.821 | 1103.6
293.15 K, x1 = 0.8157 | 850.133 | 1115.9
293.15 K, x1 = 0.9098 | 868.142 | 1127.6
293.15 K, x1 = 0.9559 | 877.303 | 1133.4
298.15 K, x1 = 0.0466 | 724.56 | 1003.8
298.15 K, x1 = 0.0991 | 731.492 | 1009.7
298.15 K, x1 = 0.1918 | 744.091 | 1020.2
298.15 K, x1 = 0.32 | 762.854 | 1035.2
298.15 K, x1 = 0.4199 | 777.351 | 1046.6
298.15 K, x1 = 0.516 | 792.506 | 1058
298.15 K, x1 = 0.623 | 810.177 | 1071
298.15 K, x1 = 0.7154 | 826.321 | 1082.3
298.15 K, x1 = 0.8157 | 844.587 | 1094.8
298.15 K, x1 = 0.9098 | 862.556 | 1106.6
298.15 K, x1 = 0.9559 | 871.691 | 1112.7
303.15 K, x1 = 0.0466 | 719.283 | 981.56
303.15 K, x1 = 0.0991 | 726.204 | 987.54
303.15 K, x1 = 0.1918 | 738.777 | 998.37
303.15 K, x1 = 0.32 | 757.526 | 1013.6
303.15 K, x1 = 0.4199 | 771.984 | 1024.8
303.15 K, x1 = 0.516 | 787.119 | 1036.5
303.15 K, x1 = 0.623 | 804.761 | 1049.6
303.15 K, x1 = 0.7154 | 820.882 | 1061.1
303.15 K, x1 = 0.8157 | 839.124 | 1073.8
303.15 K, x1 = 0.9098 | 857.076 | 1085.9
303.15 K, x1 = 0.9559 | 866.204 | 1092
308.15 K, x1 = 0.0466 | 713.967 | 959.5
308.15 K, x1 = 0.0991 | 720.87 | 965.54
308.15 K, x1 = 0.1918 | 733.414 | 976.43
308.15 K, x1 = 0.32 | 752.126 | 991.71
308.15 K, x1 = 0.4199 | 766.553 | 1003.3
308.15 K, x1 = 0.516 | 781.656 | 1015
308.15 K, x1 = 0.623 | 799.266 | 1028.4
308.15 K, x1 = 0.7154 | 815.358 | 1040.1
308.15 K, x1 = 0.8157 | 833.567 | 1053
308.15 K, x1 = 0.9098 | 851.486 | 1065.3
308.15 K, x1 = 0.9559 | 860.595 | 1071.5
313.15 K, x1 = 0.0466 | 708.604 | 937.74
313.15 K, x1 = 0.0991 | 715.486 | 943.72
313.15 K, x1 = 0.1918 | 728.002 | 954.72
313.15 K, x1 = 0.32 | 746.649 | 970.22
313.15 K, x1 = 0.4199 | 761.063 | 981.83
313.15 K, x1 = 0.516 | 776.136 | 993.77
313.15 K, x1 = 0.623 | 793.704 | 1007.3
313.15 K, x1 = 0.7154 | 809.769 | 1019.1
313.15 K, x1 = 0.8157 | 827.935 | 1032.2
313.15 K, x1 = 0.9098 | 845.816 | 1044.8
313.15 K, x1 = 0.9559 | 854.913 | 1051.1
